Results reported in ChEMBL document CHEMBL5030517, “6-Halopyridylmethylidene Penicillin-Based Sulfones Efficiently Inactivate the Natural Resistance of Pseudomonas aeruginosa to β-Lactam Antibiotics” (J Med Chem, 2021).
Converted amounts (≈) assume the structure as drawn. The source made the active and inactive calls. The calls are words filed in the database; no cut-off is given here.

How the values were obtained:
[1] = tested on: Pseudomonas aeruginosa PAO1; experiment: Inhibition of beta-lactamase activity in Pseudomonas aeruginosa PAO1 deltadacB assessed as MIC for cefpodoxime antibacterial activity at 16 mg/L by broth microdilution method
[2] = tested on: Pseudomonas aeruginosa PAO1; experiment: Inhibition of beta-lactamase activity in Pseudomonas aeruginosa PAO1 deltadacB assessed as MIC for cefpodoxime antibacterial activity at 4 mg/L by broth microdilution method
[3] = tested on: Pseudomonas aeruginosa PAO1; experiment: Inhibition of beta-lactamase activity in Pseudomonas aeruginosa PAO1 deltadacBdeltaampD assessed as MIC for cefpodoxime antibacterial activity at 16 mg/L by broth microdilution method
[4] = tested on: Pseudomonas aeruginosa PAO1; experiment: Inhibition of beta-lactamase activity in Pseudomonas aeruginosa PAO1 deltadacBdeltaampD assessed as MIC for cefpodoxime antibacterial activity at 4 mg/L by broth microdilution method
[5] = tested on: Pseudomonas aeruginosa PAO1; experiment: Inhibition of beta-lactamase activity in Pseudomonas aeruginosa PAO1 deltadacBdeltadacC assessed as MIC for cefpodoxime antibacterial activity at 16 mg/L by broth microdilution method
[6] = tested on: Pseudomonas aeruginosa PAO1; experiment: Inhibition of beta-lactamase activity in Pseudomonas aeruginosa PAO1 deltadacBdeltadacC assessed as MIC for cefpodoxime antibacterial activity at 4 mg/L by broth microdilution method
[7] = tested on: Pseudomonas aeruginosa PAO1; experiment: Inhibition of beta-lactamase activity in Pseudomonas aeruginosa PAO1 deltadacBdeltapbpGdeltadacC assessed as MIC for cefpodoxime antibacterial activity at 16 mg/L by broth microdilution method
[8] = tested on: Pseudomonas aeruginosa PAO1; experiment: Inhibition of beta-lactamase activity in Pseudomonas aeruginosa PAO1 deltadacBdeltapbpGdeltadacC assessed as MIC for cefpodoxime antibacterial activity at 4 mg/L by broth microdilution method
[9] = tested on: Pseudomonas aeruginosa PAO1; experiment: Inhibition of beta-lactamase activity in Pseudomonas aeruginosa PAO1 deltaDdeltsDh2deltaDh3 assessed as MIC for cefpodoxime antibacterial activity at 16 mg/L by broth microdilution method
[10] = tested on: Pseudomonas aeruginosa PAO1; experiment: Inhibition of beta-lactamase activity in Pseudomonas aeruginosa PAO1 deltaDdeltsDh2deltaDh3 assessed as MIC for cefpodoxime antibacterial activity at 4 mg/L by broth microdilution method
[11] = tested on: Pseudomonas aeruginosa PAO1; experiment: Inhibition of beta-lactamase activity in Pseudomonas aeruginosa PAO1 assessed as MIC for cefpodoxime antibacterial activity at 16 mg/L by broth microdilution method
[12] = tested on: Pseudomonas aeruginosa PAO1; experiment: Inhibition of beta-lactamase activity in Pseudomonas aeruginosa PAO1 assessed as MIC for cefpodoxime antibacterial activity at 4 mg/L by broth microdilution method
[13] = tested on: Pseudomonas aeruginosa PAO1; experiment: Inhibition of beta-lactamase activity in Pseudomonas aeruginosa PAO1 deltaampD assessed as MIC for cefpodoxime antibacterial activity at 16 mg/L by broth microdilution method
[14] = tested on: Pseudomonas aeruginosa PAO1; experiment: Inhibition of beta-lactamase activity in Pseudomonas aeruginosa PAO1 deltaampD assessed as MIC for cefpodoxime antibacterial activity at 4 mg/L by broth microdilution method
[15] = tested on: Pseudomonas aeruginosa PAO1; experiment: Inhibition of beta-lactamase activity in Pseudomonas aeruginosa PAO1 deltaC assessed as MIC for cefpodoxime antibacterial activity at 16 mg/L by broth microdilution method
[16] = tested on: Pseudomonas aeruginosa PAO1; experiment: Inhibition of beta-lactamase activity in Pseudomonas aeruginosa PAO1 deltaC assessed as MIC for cefpodoxime antibacterial activity at 4 mg/L by broth microdilution method
[17] = tested on: Pseudomonas aeruginosa PAO1; experiment: Inhibition of beta-lactamase activity in Pseudomonas aeruginosa PAO1 deltaC+pUCP-(PDC-1) assessed as MIC for cefpodoxime antibacterial activity at 16 mg/L by broth microdilution method
[18] = tested on: Pseudomonas aeruginosa PAO1; experiment: Inhibition of beta-lactamase activity in Pseudomonas aeruginosa PAO1 deltaC+pUCP-(PDC-1) assessed as MIC for cefpodoxime antibacterial activity at 4 mg/L by broth microdilution method
[19] = tested on: Pseudomonas aeruginosa PAO1; experiment: Inhibition of beta-lactamase activity in Pseudomonas aeruginosa PAO1 deltaC+pUCP-(PDC-5) assessed as MIC for cefpodoxime antibacterial activity at 16 mg/L by broth microdilution method
[20] = tested on: Pseudomonas aeruginosa PAO1; experiment: Inhibition of beta-lactamase activity in Pseudomonas aeruginosa PAO1 deltaC+pUCP-(PDC-5) assessed as MIC for cefpodoxime antibacterial activity at 4 mg/L by broth microdilution method
[21] = tested on: Pseudomonas aeruginosa PAO1; experiment: Inhibition of beta-lactamase activity in Pseudomonas aeruginosa PAO1 23/14-053 (ST-309) assessed as MIC for cefpodoxime antibacterial activity at 16 mg/L by broth microdilution method
[22] = tested on: Pseudomonas aeruginosa PAO1; experiment: Inhibition of beta-lactamase activity in Pseudomonas aeruginosa PAO1 36/14-210 (ST-235) assessed as MIC for cefpodoxime antibacterial activity at 16 mg/L by broth microdilution method
[23] = tested on: Pseudomonas aeruginosa PAO1; experiment: Inhibition of beta-lactamase activity in Pseudomonas aeruginosa PAO1 53/22-113 (ST-244) assessed as MIC for cefpodoxime antibacterial activity at 16 mg/L by broth microdilution method
[24] = tested on: Pseudomonas aeruginosa PAO1; experiment: Inhibition of beta-lactamase activity in Pseudomonas aeruginosa PAO1 13/09-018 (ST-175) assessed as MIC for cefpodoxime antibacterial activity at 16 mg/L by broth microdilution method
[25] = tested on: Pseudomonas aeruginosa PAO1; experiment: Inhibition of beta-lactamase activity in Pseudomonas aeruginosa PAO1 13/09-018 (ST-175) assessed as MIC for cefpodoxime antibacterial activity at 4 mg/L by broth microdilution method
[26] = tested on: Pseudomonas aeruginosa PAO1; experiment: Inhibition of beta-lactamase activity in Pseudomonas aeruginosa PAO1 17/14-017 (ST-235) assessed as MIC for cefpodoxime antibacterial activity at 16 mg/L by broth microdilution method
[27] = tested on: Pseudomonas aeruginosa PAO1; experiment: Inhibition of beta-lactamase activity in Pseudomonas aeruginosa PAO1 17/14-017 (ST-235) assessed as MIC for cefpodoxime antibacterial activity at 4 mg/L by broth microdilution method
[28] = tested on: Pseudomonas aeruginosa PAO1; experiment: Inhibition of beta-lactamase activity in Pseudomonas aeruginosa PAO1 23/14-053 (ST-309) assessed as MIC for cefpodoxime antibacterial activity at 4 mg/L by broth microdilution method
[29] = tested on: Pseudomonas aeruginosa PAO1; experiment: Inhibition of beta-lactamase activity in Pseudomonas aeruginosa PAO1 36/14-210 (ST-235) assessed as MIC for cefpodoxime antibacterial activity at 4 mg/L by broth microdilution method
[30] = tested on: Pseudomonas aeruginosa PAO1; experiment: Inhibition of beta-lactamase activity in Pseudomonas aeruginosa PAO1 53/22-113 (ST-244) assessed as MIC for cefpodoxime antibacterial activity at 4 mg/L by broth microdilution method
[31] = tested on: Pseudomonas aeruginosa PAO1; experiment: Inhibition of beta-lactamase activity in Pseudomonas aeruginosa PAO1 6/04-224 (ST-175) assessed as MIC for cefpodoxime antibacterial activity at 16 mg/L by broth microdilution method
[32] = tested on: Pseudomonas aeruginosa PAO1; experiment: Inhibition of beta-lactamase activity in Pseudomonas aeruginosa PAO1 6/04-224 (ST-175) assessed as MIC for cefpodoxime antibacterial activity at 4 mg/L by broth microdilution method
[33] = tested on: Pseudomonas aeruginosa PAO1; experiment: Inhibition of beta-lactamase activity in Pseudomonas aeruginosa PAO1 PAHUAC-14 (ST-966) assessed as MIC for cefpodoxime antibacterial activity at 16 mg/L by broth microdilution method
[34] = tested on: Pseudomonas aeruginosa PAO1; experiment: Inhibition of beta-lactamase activity in Pseudomonas aeruginosa PAO1 PAHUAC-14 (ST-966) assessed as MIC for cefpodoxime antibacterial activity at 4 mg/L by broth microdilution method
[35] = tested on: Pseudomonas aeruginosa PAO1; experiment: Inhibition of beta-lactamase activity in Pseudomonas aeruginosa PAO1 PAHUAC-27(ST-22) assessed as MIC for cefpodoxime antibacterial activity at 16 mg/L by broth microdilution method
[36] = tested on: Pseudomonas aeruginosa PAO1; experiment: Inhibition of beta-lactamase activity in Pseudomonas aeruginosa PAO1 PAHUAC-27(ST-22) assessed as MIC for cefpodoxime antibacterial activity at 4 mg/L by broth microdilution method
[37] = Inhibition beta lactamase PDC-1 in Pseudomonas aeruginosa PAO1 assessed as apparent inhibition constant using nitrocefin as substrate measured by 96 well microtitre plate; settings: read-out: Ki(app)
[38] = tested on: Pseudomonas aeruginosa PAO1; experiment: Inhibition beta lactamase PDC-1 in Pseudomonas aeruginosa PAO1 assessed as inactivation efficiency by measuring acylation rate (k2/K) using nitrocefin as substrate measured by 96 well microtitre plate
[39] = Inhibition beta lactamase PDC-1 in Pseudomonas aeruginosa PAO1 using nitrocefin as substrate measured by 96 well microtitre plate
[40] = tested on: Pseudomonas aeruginosa PAO1; experiment: Inhibition beta lactamase PDC-1 in Pseudomonas aeruginosa PAO1 assessed as ratio of kinact/K1 using nitrocefin as substrate measured by 96 well microtitre plate
[41] = tested on: Pseudomonas aeruginosa PAO1; experiment: Inhibition beta lactamase PDC-1 in Pseudomonas aeruginosa PAO1 assessed as deacylation off-rate using nitrocefin as substrate at 30 mins measured by 96 well microtitre plate
[42] = tested on: Pseudomonas aeruginosa PAO1; experiment: Inhibition beta lactamase PDC-1 in Pseudomonas aeruginosa PAO1 assessed as maximum rate of inactivation using nitrocefin as substrate measured by 96 well microtitre plate
[43] = tested on: Pseudomonas aeruginosa PAO1; experiment: Inhibition beta lactamase PDC-1 in Pseudomonas aeruginosa PAO1 assessed half life of nitrocefin substrate measured by 96 well microtitre plate assay
[44] = tested on: Pseudomonas aeruginosa PAO1; experiment: Inhibition of beta lactamase PDC-1 in Pseudomonas aeruginosa PAO1 assessed as reduction in enzyme activity using nitrocefin as chromogenic substrate preincubated for 10 min using 96 well microtiter plate
Pseudomonas aeruginosa = experiment: Inhibition of beta lactamase PDC-1 in Pseudomonas aeruginosa PAO1 for 30 min using MALDI TOF-MS analysis

`C[C@]1(COC(=O)Cc2ccc(O)c(O)c2)[C@H](C(=O)O)N2C(=O)/C(=C/c3ccc(F)cn3)[C@H]2S1(=O)=O` showed an MIC [1] of 0.5 µg/mL (≈ 0.987 µM), an MIC [2] of 1 µg/mL (≈ 1.97 µM) and an MIC [3] of 2 µg/mL (≈ 3.95 µM). It also gave an MIC [4] of 8 µg/mL (≈ 15.8 µM), an MIC [5] of 0.5 µg/mL (≈ 0.987 µM) and an MIC [6] of 2 µg/mL (≈ 3.95 µM). For the same compound, the MIC [7] was 0.5 µg/mL (≈ 0.987 µM), the MIC [8] was 1 µg/mL (≈ 1.97 µM) and the MIC [9] was 1 µg/mL (≈ 1.97 µM). For the same compound, the MIC [10] was 8 µg/mL (≈ 15.8 µM), the MIC [11] was 1 µg/mL (≈ 1.97 µM) and the MIC [12] was 1 µg/mL (≈ 1.97 µM). It also gave an MIC [13] of 1 µg/mL (≈ 1.97 µM), an MIC [14] of 8 µg/mL (≈ 15.8 µM) and an MIC [15] of 1 µg/mL (≈ 1.97 µM). It also gave an MIC [16] of 1 µg/mL (≈ 1.97 µM), an MIC [17] of 1 µg/mL (≈ 1.97 µM) and an MIC [18] of 1 µg/mL (≈ 1.97 µM). For the same compound, the MIC [19] was 2 µg/mL (≈ 3.95 µM), the MIC [20] was 2 µg/mL (≈ 3.95 µM) and the MIC [21] was 2 µg/mL (≈ 3.95 µM). The MIC [22] was 8 µg/mL (≈ 15.8 µM), the MIC [23] was 4 µg/mL (≈ 7.9 µM) and the MIC [24] was 8 µg/mL (≈ 15.8 µM). For the same compound, the MIC [25] was 2 µg/mL (≈ 3.95 µM), the MIC [26] was 4 µg/mL (≈ 7.9 µM) and the MIC [27] was 4 µg/mL (≈ 7.9 µM). The MIC [28] was 2 µg/mL (≈ 3.95 µM), the MIC [29] was 16 µg/mL (≈ 31.6 µM) and the MIC [30] was 8 µg/mL (≈ 15.8 µM). It also gave an MIC [31] of 8 µg/mL (≈ 15.8 µM), an MIC [32] of 8 µg/mL (≈ 15.8 µM) and an MIC [33] of 2 µg/mL (≈ 3.95 µM). It also gave an MIC [34] of 8 µg/mL (≈ 15.8 µM), an MIC [35] of 2 µg/mL (≈ 3.95 µM) and an MIC [36] of 4 µg/mL (≈ 7.9 µM). It also gave a Ki [37] of 110 nM, a k2/K inactivation efficiency [38] of 6.8 M⁻¹ s⁻¹ and an IC50 [39] of 6.3 nM. For the same compound, the K [40] was 5 10^5/M/s, the K [41] was 9 10^-2/min and the Kinact [42] was 0.013 s⁻¹. The T1/2 [43] was 1.3 h, the inhibition [44] was “inactive” and the inhibition (Pseudomonas aeruginosa) was “inactive”.
